This is an account of results in PMC9616876, “Structures of the CcmABCD heme release complex at multiple states” (Nature Communications, 2022).

Usually stoichiometry N stands for the number of molecules, sites or subunits per partner or assembly.

The target in series [1] is T1, CcmABCD (ATP-binding site in CcmA) (Escherichia coli, UniProt P33931).
T1 construct: full-length CcmA2B2C1D1, N-terminal His6 on CcmA; CcmABCDE operon co-expressed in E. coli BL21(DE3), CcmE not observed in purified complex; DDM-solubilised membranes; with Heme exporter protein B; Heme exporter protein C; Heme exporter protein D
Put plainly: cryo-EM structure.

Series [2] deals with the molecule itself. Put plainly: cryo-EM structure; CcmABCD purified in DDM (20 mM Tris-HCl pH 7.5, 50 mM NaCl, 0.03% DDM), ~12 mg/ml; apo, with 3.5 mM MgCl2 and AMP-PNP, or with 3.5 mM MgCl2, ATP, heme b and 1 mM DTT; closed, semi-open and open NBD states.

As for `Nc1ncnc2c1ncn2[C@@H]1O[C@H](COP(=O)(O)OP(=O)(O)NP(=O)(O)O)[C@@H](O)[C@H]1O` [AMP-PNP], the cryo-EM structure result in series [1] (3.5 mM AMP-PNP, 3.5 mM MgCl2, two AMP-PNP, closed NBD state) is listed as “CcmABCD bound with AMP-PNP in closed NBD state”.

Regarding `Nc1ncnc2c1ncn2[C@@H]1O[C@H](COP(=O)(O)OP(=O)(O)OP(=O)(O)O)[C@@H](O)[C@H]1O` [ATP], in series [1] (3.5 mM ATP, 3.5 mM MgCl2, 3.5 mM heme b, 1 mM DTT, two ATP in closed NBD state (7F04), one ATP in semi-open NBD state (7VFP), ATPase activity also measured), the cryo-EM structure result is “CcmABCD bound with heme b and double ATPs in closed NBD state”.

For the molecule `O=P(O)(O)O` [inorganic phosphate], the cryo-EM structure entry in series [1] (no nucleotide added, one phosphate per CcmA, closed NBD state, membranes purified in potassium phosphate buffer) was “each CcmA binds one inorganic phosphate”.

B1: CcmA (natural protein, E. coli BL21 (DE3))
chain: MGMLEARELLCERDERTLFSGLSFTLNAGEWVQITGSNGAGKTTLLRLLTGLSRPDAGEVLWQGQPLHQVRDSYHQNLLWIGHQPGIKTRLTALENLHFYHRDGDTAQCLEALAQAGLAGFEDIPVNQLSAGQQRRVALARLWLTRATLWILDEPFTAIDVNGVDRLTQRMAQHTEQGGIVILTTHQPLNVAESKIRRISLTQTRAA
notes: The whole CcmABCDE gene stretch was amplified by PCR from the genome; also called hexahistidine-tagged CcmA; NBD; not shown: His6, N-terminal, kept
For B1, the “stoichiometry N” value in series [2] amounted to 2.

B2: CcmB (natural protein, E. coli BL21 (DE3))
chain: MMFWRIFRLELRVAFRHSAEIANPLWFFLIVITLFPLSIGPEPQLLARIAPGIIWVAALLSSLLALERLFRDDLQDGSLEQLMLLPLPLPAVVLAKVMAHWMVTGLPLLILSPLVAMLLGMDVYGWQVMALTLLLGTPTLGFLGAPGVALTVGLKRGGVLLSILVLPLTIPLLIFATAAMDAASMHLPVDGYLAILGALLAGTATLSPFATAAALRISIQ
notes: CcmB, integral membrane protein with six transmembrane helices, gene amplified from the E. coli BL21 (DE3) genome; also called CcmB1; CcmB2
For the molecule B2, the “stoichiometry N” value in series [2] was 2.
